Reference: EP0049801B1, “Sucrose-mutase, immobilized sucrose-mutase and use of this immobilized sucrose-mutase for the production of isomaltulose(6-O-alpha-D-glucopyranosido-D fructose)” (BAYER AG, priority 1980, dated 1982)

Test system: Saccharose-Mutase
Experiment: Influence of ions on the enzymatic reaction
Format: biochemical, Protaminobacter rubrum
Procedure: Das freie Enzym wird bei Temperaturen > 40 °C rasch inaktiviert. Die Reaktion wird durch CU- + Zn-Ionen stark gehemmt.

In the case of `OB(O)O` [Borat], the “Einfluß auf die enzymatische Aktivität” value is reported as “keinen Einfluß”.
In the case of `[Cu+2]` [CU], the “Einfluß auf die enzymatische Aktivität” value is reported as “stark gehemmt”.
